According to patent US10183944B2 (Asana Biosciences, LLC, priority 2011, dated 2019):
Counter-ions that a name gives are not always drawn.

How the values were obtained:
JAK2 = JAK2 (Homo sapiens (Human), UniProt O60674); assay: Inhibition of enzymatic JAK2 kinase activity (TR-FRET); assay type: biochemical; conditions: read-out: IC50 JAK
Procedure, shortened: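 TR-FRET read-out (Eu antibody donor, Ulight poly Glu-Tyr acceptor, 665/615 nm ratio) after a 60 min RT kinase reaction with ATP, begun following 30 min compound–enzyme preincubation. Stopped by EDTA; inhibition expressed as 100 minus % activity of positive control.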

[1] = molecular target: Syk (356-635 amino acids) catalytic domain (Homo sapiens (Human), UniProt P43405); assay: Inhibition of enzymatic Syk kinase activity (radiometric); assay type: biochemical; conditions: read-out: IC50 Syk
Procedure, shortened: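 Radiometric filter-binding format: 32P transfer from γ-32P-ATP onto pG4T, scintillation-counted after acid washes of P81 paper. Syk kinase domain (356-635), 0.035–7.5 ng per reaction, was exposed to compound for 30 minutes at room temperature before a 10-minute, 30° C. reaction with ATP (100 μM stock). Inhibition derived from counts with versus without compound.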

Chain of JAK2 (O60674 808-1132): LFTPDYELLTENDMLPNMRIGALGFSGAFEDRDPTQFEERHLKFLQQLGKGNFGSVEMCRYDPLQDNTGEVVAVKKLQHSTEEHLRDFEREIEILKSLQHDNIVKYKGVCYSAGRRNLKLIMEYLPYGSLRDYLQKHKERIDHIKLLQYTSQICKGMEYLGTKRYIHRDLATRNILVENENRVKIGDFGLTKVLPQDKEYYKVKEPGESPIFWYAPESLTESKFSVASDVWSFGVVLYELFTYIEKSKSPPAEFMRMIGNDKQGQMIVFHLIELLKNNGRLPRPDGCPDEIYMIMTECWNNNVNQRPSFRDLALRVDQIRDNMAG

Row | Compound | IC50 (JAK2) [nM] | IC50 [1] [nM]
1 | O=C(O)CC1CCN(Cc2ccc(Nc3nc(N4CCCCCC4)nc4cn[nH]c(=O)c34)cc2)CC1 [Example 77, 2-(1-(4-((2-(azepan-1-yl)-5-oxo-5,6-dihydropyrimido[4,5-d]pyridazin-4-yl)amino)benzyl)piperidin-4-yl)acetic acid] | < 10 | < 50
2 | O=c1[nH]ncc2nc(N3CCCCCC3)nc(Nc3ccc(N4CCC(Cc5nn[nH]n5)CC4)nc3)c12 [Example 252, 4-((6-(4-((2H-tetrazol-5-yl)methyl)piperidin-1-yl)pyridin-3-yl)amino)-2-(azepan-1-yl)pyrimido[4,5-d]pyridazin-5(6H)-one] | < 10 | < 50
3 | COc1ccccc1-c1nc(Nc2ccc(CN3CCNCC3)cc2)c2c(=O)[nH]ncc2n1 [Example 36, 2-(2-methoxyphenyl)-4-(4-(piperazin-1-ylmethyl)phenylamino)pyrimido[4,5-d]pyridazin-5(6H)-one hydrochloride] | < 100 | > 100
4 | O=C(O)CC1CCN(CCCOc2ccc(Nc3nc(N4CCCCCC4)nc4cn[nH]c(=O)c34)cc2)CC1 [Example 126, 2-(1-(3-(4-((2-(azepan-1-yl)-5-oxo-5,6-dihydropyrimido[4,5-d]pyridazin-4-yl)amino)phenoxy)propyl)piperidin-4-yl) acetic acid] | < 50 | < 100
5 | CC(C)(O)C(=O)N1CCN(Cc2ccc(Nc3nc(N4CCCCCC4)nc4cn[nH]c(=O)c34)cc2)CC1 [Example 84, 2-(azepan-1-yl)-4-((4-((4-(2-hydroxy-2-methylpropanoyl)piperazin-1-yl)methyl)phenyl)amino)pyrimido[4,5-d]pyridazin-5(6H)-one] | < 10 | < 50
6 | CCN1CCN(c2ccc(Nc3nc(-c4ccsc4)nc4cn[nH]c(=O)c34)cc2)CC1 [Example 37, 4-(4-(4-ethylpiperazin-1-yl)phenylamino)-2-(thiophen-3-yl)pyrimido[4,5-d]pyridazin-5(6H)-one hydrochloride] | < 100 | < 10
7 | COc1ccccc1-c1nc(Nc2ccc(N3CCC4(CC3)CC4C(=O)O)cc2)c2c(=O)[nH]ncc2n1 (centres unmarked) [Example 53, 6-(4-((2-(2-methoxylphenyl)-5-oxo-5,6-dihydropyrimido[4,5-d]pyridazin-4-yl)amino)phenyl)-6-azaspiro[2.5]octane-1-carboxylic acid] | < 100 | > 100
8 | CC(C)(O)C(=O)N1CCN(c2ccc(Nc3nc(N4CCC(CC#N)CC4)nc4cn[nH]c(=O)c34)cc2)CC1 [Example 223, 2-(1-(4-((4-(4-(2-hydroxy-2-methylpropanoyl)piperazin-1-yl)phenyl)amino)-5-oxo-5,6-dihydropyrimido[4,5-d]pyridazin-2-yl)piperidin-4-yl) acetonitrile] | < 10 | < 10
9 | O=c1[nH]ncc2nc(N3CCCCCC3)nc(Nc3ccc(N4CCC(CO)CC4)cc3)c12 [Example 202, 2-(azepan-1-yl)-4-((4-(4-(hydroxymethyl)piperidin-1-yl)phenyl)amino) pyrimido[4,5-d]pyridazin-5(6H)-one] | < 10 | < 50
10 | O=C1CN(c2ccc(Nc3nc(N4CCCCCC4)nc4cn[nH]c(=O)c34)cc2)CCN1 [Example 165, 2-(azepan-1-yl)-4-((4-(3-oxopiperazin-1-yl)phenyl)amino)pyrimido[4,5-d]pyridazin-5(6H)-one] | < 10 | < 100
11 | N#CCC(=O)N1CCN(c2ccc(Nc3nc(N4CCCCCC4)nc4cn[nH]c(=O)c34)cn2)CC1 [Example 234, 3-(4-(5-((2-(azepan-1-yl)-5-oxo-5,6-dihydropyrimido[4,5-d]pyridazin-4-yl)amino)pyridin-2-yl)piperazin-1-yl)-3-oxopropanenitrile] | < 10 | < 50
12 | N#CCC1CCN(c2ccc(Nc3nc(N4CCC(CC#N)CC4)nc4cn[nH]c(=O)c34)cn2)CC1 [Example 114, 2-(1-(5-((2-(4-(cyanomethyl)piperidin-1-yl)-5-oxo-5,6-dihydropyrimido[4,5-d]pyridazin-4-yl)amino)pyridin-2-yl)piperidin-4-yl)acetonitrile] | < 50 | < 10
13 | O=c1[nH]ncc2nc(N3CC[S+]([O-])CC3)nc(Nc3ccc(CN4CCNCC4)cc3)c12 [Example 44, 2-(1-oxidothiomorpholino)-4-((4-(piperazin-1-ylmethyl)phenyl)amino) pyrimido[4,5-d]pyridazin-5(6H)-one hydrochloride] | > 100 | > 100
14 | O=C(O)[C@H]1CO[C@H](COc2ccc(Nc3nc(N4CCCCCC4)nc4cn[nH]c(=O)c34)cc2)CO1 [Example 124, (2R,5S)-5-((4-((2-(azepan-1-yl)-5-oxo-5,6-dihydropyrimido[4,5-d]pyridazin-4-yl)amino)phenoxy)methyl)-1,4-dioxane-2-carboxylic acid] | < 10 | < 10
15 | O=c1[nH]ncc2nc(N3CCCNCC3)nc(Nc3ccc(CN4CCNCC4)cc3)c12 [Example 59, 2-(1,4-diazepan-1-yl)-4-((4-(piperazin-1-ylmethyl)phenyl)amino)pyrimido[4,5-d]pyridazin-5(6H)-one dihydrochloride] | > 100 | < 50
16 | CC(C)(C(=O)O)C1CCN(c2ccc(Nc3nc(N4CCCCCC4)nc4cn[nH]c(=O)c34)cc2)CC1 [Example 142, 2-(1-(4-((2-(azepan-1-yl)-5-oxo-5,6-dihydropyrimido[4,5-d]pyridazin-4-yl)amino)phenyl)piperidin-4-yl)-2-methylpropanoic acid] | < 10 | < 50
17 | O=c1[nH]ncc2nc(N3CCCCCC3)nc(Nc3ccc(N4CCC(CCO)CC4)nc3)c12 [Example 236, 2-(azepan-1-yl)-4-((6-(4-(2-hydroxyethyl)piperidin-1-yl)pyridin-3-yl)amino) pyrimido[4,5-d]pyridazin-5(6H)-one] | < 50 | < 100

The remaining lines, values ahead:

Row | IC50 (JAK2) [nM] | IC50 [1] [nM] | Compound
18 | < 50 | < 50 | O=c1[nH]ncc2nc(N3CCCCCC3)nc(Nc3ccc(N4CCN(CCCO)CC4)cc3)c12 [Example 260, 2-(azepan-1-yl)-4-((4-(4-(3-hydroxypropyl)piperazin-1-yl)phenyl)amino)pyrimido[4,5-d]pyridazin-5(6H)-one]
19 | < 10 | < 50 | N#CCC(=O)N1CCN(c2ccc(Nc3nc(N4CCC(CC#N)CC4)nc4cn[nH]c(=O)c34)cc2)CC1 [Example 240, 3-(4-(4-((2-(4-(cyanomethyl)piperidin-1-yl)-5-oxo-5,6-dihydropyrimido[4,5-d]pyridazin-4-yl)amino)phenyl)piperazin-1-yl)-3-oxopropanenitrile]
20 | < 10 | < 10 | N#CCC1CCN(c2nc(Nc3ccc(N4CCC(Cc5nn[nH]n5)CC4)cc3)c3c(=O)[nH]ncc3n2)CC1 [Example 246, 2-(1-(4-((4-(4-((2H-tetrazol-5-yl)methyl)piperidin-1-yl)phenyl)amino)-5-oxo-5,6-dihydropyrimido[4,5-d]pyridazin-2-yl)piperidin-4-yl)acetonitrile]
21 | > 100 | < 50 | O=c1[nH]ncc2nc(N3CCCCCC3)nc(Nc3ccc(CO)cc3)c12 [Example 331, 2-(azepan-1-yl)-4-((4-(hydroxymethyl)phenyl)amino)pyrimido[4,5-d]pyridazin-5(6H)-one]
22 | < 10 | < 10 | NCCOc1ccc(Nc2nc(N3CCCCCC3)nc3cn[nH]c(=O)c23)cc1 [Example 199, 4-((4-(2-aminoethoxy)phenyl)amino)-2-(azepan-1-yl)pyrimido[4,5-d]pyridazin-5(6H)-one]
23 | < 10 | < 50 | O=c1[nH]ncc2nc(N3CCCCCC3)nc(Nc3ccc(N4CCCC(O)C4)cc3)c12 (centres unmarked) [Example 281, 2-(azepan-1-yl)-4-((4-(3-hydroxypiperidin-1-yl)phenyl)amino) pyrimido[4,5-d]pyridazin-5(6H)-one]
24 | < 10 | < 50 | N#CCC1CCN(c2nc(Nc3ccc(N4CCC(Cc5nn[nH]n5)CC4)nc3)c3c(=O)[nH]ncc3n2)CC1 [Example 253, 2-(1-(4-((6-(4-((2H-tetrazol-5-yl)methyl)piperidin-1-yl)pyridin-3-yl)amino)-5-oxo-5,6-dihydropyrimido[4,5-d]pyridazin-2-yl)piperidin-4-yl) acetonitrile]
25 | < 10 | < 50 | CC(C)(CO)Oc1ccc(Nc2nc(N3CCCCCC3)nc3cn[nH]c(=O)c23)cc1 [Example 314, 2-(azepan-1-yl)-4-((4-((1-hydroxy-2-methylpropan-2-yl)oxy)phenyl)amino) pyrimido[4,5-d]pyridazin-5(6H)-one]
26 | < 50 | < 50 | N#CCC1CCN(c2nc(Nc3ccc(-c4nn[nH]n4)cc3)c3c(=O)[nH]ncc3n2)CC1 [Example 245, 2-(1-(4-((4-(2H-tetrazol-5-yl)phenyl)amino)-5-oxo-5,6-dihydropyrimido[4,5-d]pyridazin-2-yl)piperidin-4-yl)acetonitrile]
27 | < 10 | < 10 | N#CCC1CCN(c2nc(Nc3ccc(N4CCN(CCC(=O)O)CC4)cc3)c3c(=O)[nH]ncc3n2)CC1 [Example 220, 3-(4-(4-((2-(4-(cyanomethyl)piperidin-1-yl)-5-oxo-5,6-dihydropyrimido[4,5-d]pyridazin-4-yl)amino)phenyl)piperazin-1-yl)propanoic acid]
28 | < 10 | < 50 | CC(C)(O)C(=O)N1CCN(c2ccc(Nc3nc(N4CCCCCC4)nc4cn[nH]c(=O)c34)cn2)CC1 [Example 238, 2-(azepan-1-yl)-4-((6-(4-(2-hydroxy-2-methylpropanoyl)piperazin-1-yl)pyridin-3-yl)amino)pyrimido[4,5-d]pyridazin-5(6H)-one]
